# Measured values as given in PubChem BioAssay (NCI).
#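 Results reflect a 48-hour exposure of cells in 96-well plates to compound at five concentrations. The concentration for 50% growth inhibition is given as GI50. Definition used: TGI = concentration required for complete inhibition of growth.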
# Legend:
# Assay in all cases: NCI tumour cell line growth inhibition, 48 h
# 786-0 renal = system: 786-0 renal
# A498 renal = system: A498 renal
# A549 NSCLC = system: A549 NSCLC
# ACHN renal = system: ACHN renal
# BT-549 breast = system: BT-549 breast
# CAKI-1 renal = system: CAKI-1 renal
# CCRF-CEM leukemia = system: CCRF-CEM leukemia
# COLO 205 colon = system: COLO 205 colon
# DU-145 prostate = system: DU-145 prostate
# EKVX NSCLC = system: EKVX NSCLC
# HCC-2998 colon = system: HCC-2998 colon
# HCT-116 colon = system: HCT-116 colon
# HCT-15 colon = system: HCT-15 colon
# HL-60(TB) leukemia = system: HL-60(TB) leukemia
# HOP-62 NSCLC = system: HOP-62 NSCLC
# HOP-92 NSCLC = system: HOP-92 NSCLC
# HS 578T breast = system: HS 578T breast
# HT29 colon = system: HT29 colon
# IGROV1 ovarian = system: IGROV1 ovarian
# KM12 colon = system: KM12 colon
# LOX IMVI melanoma = system: LOX IMVI melanoma
# M14 melanoma = system: M14 melanoma
# MALME-3M melanoma = system: MALME-3M melanoma
# MCF7 breast = system: MCF7 breast
# MDA-MB-231 breast = system: MDA-MB-231 breast
# MDA-MB-435 = system: MDA-MB-435
# MDA-MB-468 breast = system: MDA-MB-468 breast
# MOLT-4 leukemia = system: MOLT-4 leukemia
# NCI-H226 lung = system: NCI-H226 lung
# NCI-H23 lung = system: NCI-H23 lung
# NCI-H460 lung = system: NCI-H460 lung
# NCI-H522 lung = system: NCI-H522 lung
# OVCAR-3 ovarian = system: OVCAR-3 ovarian
# OVCAR-4 ovarian = system: OVCAR-4 ovarian
# OVCAR-5 ovarian = system: OVCAR-5 ovarian
# OVCAR-8 ovarian = system: OVCAR-8 ovarian
# PC-3 prostate = system: PC-3 prostate
# RPMI-8226 leukemia = system: RPMI-8226 leukemia
# RXF 393 renal = system: RXF 393 renal
# SF-268 CNS = system: SF-268 CNS
# SF-295 CNS = system: SF-295 CNS
# SF-539 CNS = system: SF-539 CNS
# SK-MEL-2 melanoma = system: SK-MEL-2 melanoma
# SK-MEL-28 melanoma = system: SK-MEL-28 melanoma
# SK-MEL-5 melanoma = system: SK-MEL-5 melanoma
# SK-OV-3 ovarian = system: SK-OV-3 ovarian
# SN12C renal = system: SN12C renal
# SNB-19 CNS = system: SNB-19 CNS
# SNB-75 CNS = system: SNB-75 CNS
# SR leukemia = system: SR leukemia
# SW-620 colon = system: SW-620 colon
# T-47D breast = system: T-47D breast
# TK-10 renal = system: TK-10 renal
# U251 CNS = system: U251 CNS
# UACC-257 melanoma = system: UACC-257 melanoma
# UACC-62 melanoma = system: UACC-62 melanoma
# UO-31 renal = system: UO-31 renal
compound,measurement,setting,value
CSc1ccccc1NC(=O)c1ccc2nn(/C(C#N)=C/c3ccccn3)nc2c1,GI50,786-0 renal,3.68 µM
same,TGI,786-0 renal,12.4 µM
same,GI50,A498 renal,16 µM
same,TGI,A498 renal,29.7 µM
same,GI50,A549 NSCLC,12.2 µM
same,TGI,A549 NSCLC,28.5 µM
same,GI50,ACHN renal,2.1 µM
same,TGI,ACHN renal,4.42 µM
same,GI50,BT-549 breast,6.17 µM
same,TGI,BT-549 breast,18.7 µM
same,GI50,CAKI-1 renal,2.78 µM
same,TGI,CAKI-1 renal,10.8 µM
same,GI50,CCRF-CEM leukemia,3.13 µM
same,TGI,CCRF-CEM leukemia,30.7 µM
same,GI50,COLO 205 colon,1.96 µM
same,TGI,COLO 205 colon,4.25 µM
same,GI50,DU-145 prostate,4.38 µM
same,TGI,DU-145 prostate,15 µM
same,GI50,EKVX NSCLC,9.18 µM
same,TGI,EKVX NSCLC,21.6 µM
same,GI50,HCC-2998 colon,4.08 µM
same,TGI,HCC-2998 colon,14.6 µM
same,GI50,HCT-116 colon,2.14 µM
same,TGI,HCT-116 colon,4.72 µM
same,GI50,HCT-15 colon,1.73 µM
same,TGI,HCT-15 colon,3.53 µM
same,GI50,HL-60(TB) leukemia,2.07 µM
same,TGI,HL-60(TB) leukemia,6.58 µM
same,GI50,HOP-62 NSCLC,13.1 µM
same,TGI,HOP-62 NSCLC,27.2 µM
same,GI50,HOP-92 NSCLC,6.41 µM
same,TGI,HOP-92 NSCLC,23.9 µM
same,GI50,HS 578T breast,3.19 µM
same,TGI,HS 578T breast,14.3 µM
same,GI50,HT29 colon,3.09 µM
same,TGI,HT29 colon,10.1 µM
same,GI50,IGROV1 ovarian,4.52 µM
same,TGI,IGROV1 ovarian,15.9 µM
same,GI50,KM12 colon,7.64 µM
same,TGI,KM12 colon,24.2 µM
same,GI50,LOX IMVI melanoma,1.72 µM
same,TGI,LOX IMVI melanoma,3.28 µM
same,GI50,M14 melanoma,2.96 µM
same,TGI,M14 melanoma,10.4 µM
same,GI50,MALME-3M melanoma,2 µM
same,TGI,MALME-3M melanoma,4.25 µM
same,GI50,MCF7 breast,3 µM
same,TGI,MCF7 breast,13.1 µM
same,GI50,MDA-MB-231 breast,2.91 µM
same,TGI,MDA-MB-231 breast,8.48 µM
same,GI50,MDA-MB-435,2.67 µM
same,TGI,MDA-MB-435,9.09 µM
same,GI50,MDA-MB-468 breast,1.84 µM
same,TGI,MDA-MB-468 breast,4.2 µM
same,GI50,MOLT-4 leukemia,2.68 µM
same,TGI,MOLT-4 leukemia,7.74 µM
same,GI50,NCI-H226 lung,13.5 µM
same,TGI,NCI-H226 lung,28.5 µM
same,GI50,NCI-H23 lung,5.13 µM
same,TGI,NCI-H23 lung,18.2 µM
same,GI50,NCI-H460 lung,3.16 µM
same,TGI,NCI-H460 lung,11.6 µM
same,GI50,NCI-H522 lung,1.65 µM
same,TGI,NCI-H522 lung,3.43 µM
same,GI50,OVCAR-3 ovarian,2.29 µM
same,TGI,OVCAR-3 ovarian,5.95 µM
same,GI50,OVCAR-4 ovarian,6.5 µM
same,TGI,OVCAR-4 ovarian,19.5 µM
same,GI50,OVCAR-5 ovarian,4.69 µM
same,TGI,OVCAR-5 ovarian,17.5 µM
same,GI50,OVCAR-8 ovarian,3.14 µM
same,TGI,OVCAR-8 ovarian,11.7 µM
same,GI50,PC-3 prostate,7.04 µM
same,TGI,PC-3 prostate,23.7 µM
same,GI50,RPMI-8226 leukemia,2.63 µM
same,TGI,RPMI-8226 leukemia,8.32 µM
same,GI50,RXF 393 renal,1.78 µM
same,TGI,RXF 393 renal,4.16 µM
same,GI50,SF-268 CNS,10.3 µM
same,TGI,SF-268 CNS,28.1 µM
same,GI50,SF-295 CNS,13.8 µM
same,TGI,SF-295 CNS,27.3 µM
same,GI50,SF-539 CNS,2.8 µM
same,TGI,SF-539 CNS,8.64 µM
same,GI50,SK-MEL-2 melanoma,6.47 µM
same,TGI,SK-MEL-2 melanoma,20 µM
same,GI50,SK-MEL-28 melanoma,2.06 µM
same,TGI,SK-MEL-28 melanoma,4.57 µM
same,GI50,SK-MEL-5 melanoma,4.99 µM
same,TGI,SK-MEL-5 melanoma,17.2 µM
same,GI50,SK-OV-3 ovarian,16 µM
same,TGI,SK-OV-3 ovarian,30.1 µM
same,GI50,SN12C renal,4.53 µM
same,TGI,SN12C renal,16.1 µM
same,GI50,SNB-19 CNS,12.8 µM
same,TGI,SNB-19 CNS,26.5 µM
same,GI50,SNB-75 CNS,5.8 µM
same,TGI,SNB-75 CNS,20.6 µM
same,GI50,SR leukemia,2.35 µM
same,TGI,SR leukemia,7.96 µM
same,GI50,SW-620 colon,2.29 µM
same,TGI,SW-620 colon,5.39 µM
same,GI50,T-47D breast,3.5 µM
same,TGI,T-47D breast,16.6 µM
same,GI50,TK-10 renal,4.26 µM
same,TGI,TK-10 renal,15.9 µM
same,GI50,U251 CNS,4.35 µM
same,TGI,U251 CNS,15.7 µM
same,GI50,UACC-257 melanoma,2.57 µM
same,TGI,UACC-257 melanoma,7.49 µM
same,GI50,UACC-62 melanoma,3.77 µM
same,TGI,UACC-62 melanoma,14.6 µM
same,GI50,UO-31 renal,2.01 µM
same,TGI,UO-31 renal,4.74 µM
